Results taken from ChEMBL document CHEMBL4507262, “Data for DCP probe A-1596586” (2021).

How the values were obtained:
[1] = target: Receptor tyrosine-protein kinase erbB-2 (Homo sapiens) (UniProt P04626); conditions: Compound concentration 1000.0 nM
[2] = target: Tyrosine-protein kinase Blk (Homo sapiens) (UniProt P51451); conditions: Compound concentration 1000.0 nM
[3] = target: Serine/threonine-protein kinase RIO1 (Homo sapiens) (UniProt Q9BRS2); conditions: Compound concentration 1000.0 nM
Chain of Serine/threonine-protein kinase RIO1 (Homo sapiens) (Q9BRS2 whole entry): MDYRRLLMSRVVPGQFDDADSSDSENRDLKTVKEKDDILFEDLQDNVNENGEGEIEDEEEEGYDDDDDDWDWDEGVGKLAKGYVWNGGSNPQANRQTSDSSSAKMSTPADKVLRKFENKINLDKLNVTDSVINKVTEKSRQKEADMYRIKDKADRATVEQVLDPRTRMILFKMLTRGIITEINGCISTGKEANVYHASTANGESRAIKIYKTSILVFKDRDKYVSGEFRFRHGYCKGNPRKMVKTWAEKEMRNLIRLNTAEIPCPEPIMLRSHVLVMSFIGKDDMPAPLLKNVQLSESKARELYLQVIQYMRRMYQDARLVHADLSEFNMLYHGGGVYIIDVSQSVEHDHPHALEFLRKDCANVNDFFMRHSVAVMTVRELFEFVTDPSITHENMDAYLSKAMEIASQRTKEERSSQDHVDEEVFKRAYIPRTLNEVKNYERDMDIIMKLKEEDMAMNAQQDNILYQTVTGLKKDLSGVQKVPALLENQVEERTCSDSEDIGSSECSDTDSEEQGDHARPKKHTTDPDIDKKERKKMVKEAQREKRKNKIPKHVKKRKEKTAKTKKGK

[4] = target: Platelet-derived growth factor receptor beta (Homo sapiens) (UniProt P09619); conditions: Compound concentration 1000.0 nM
Chain of Platelet-derived growth factor receptor beta (Homo sapiens) (P09619 whole entry): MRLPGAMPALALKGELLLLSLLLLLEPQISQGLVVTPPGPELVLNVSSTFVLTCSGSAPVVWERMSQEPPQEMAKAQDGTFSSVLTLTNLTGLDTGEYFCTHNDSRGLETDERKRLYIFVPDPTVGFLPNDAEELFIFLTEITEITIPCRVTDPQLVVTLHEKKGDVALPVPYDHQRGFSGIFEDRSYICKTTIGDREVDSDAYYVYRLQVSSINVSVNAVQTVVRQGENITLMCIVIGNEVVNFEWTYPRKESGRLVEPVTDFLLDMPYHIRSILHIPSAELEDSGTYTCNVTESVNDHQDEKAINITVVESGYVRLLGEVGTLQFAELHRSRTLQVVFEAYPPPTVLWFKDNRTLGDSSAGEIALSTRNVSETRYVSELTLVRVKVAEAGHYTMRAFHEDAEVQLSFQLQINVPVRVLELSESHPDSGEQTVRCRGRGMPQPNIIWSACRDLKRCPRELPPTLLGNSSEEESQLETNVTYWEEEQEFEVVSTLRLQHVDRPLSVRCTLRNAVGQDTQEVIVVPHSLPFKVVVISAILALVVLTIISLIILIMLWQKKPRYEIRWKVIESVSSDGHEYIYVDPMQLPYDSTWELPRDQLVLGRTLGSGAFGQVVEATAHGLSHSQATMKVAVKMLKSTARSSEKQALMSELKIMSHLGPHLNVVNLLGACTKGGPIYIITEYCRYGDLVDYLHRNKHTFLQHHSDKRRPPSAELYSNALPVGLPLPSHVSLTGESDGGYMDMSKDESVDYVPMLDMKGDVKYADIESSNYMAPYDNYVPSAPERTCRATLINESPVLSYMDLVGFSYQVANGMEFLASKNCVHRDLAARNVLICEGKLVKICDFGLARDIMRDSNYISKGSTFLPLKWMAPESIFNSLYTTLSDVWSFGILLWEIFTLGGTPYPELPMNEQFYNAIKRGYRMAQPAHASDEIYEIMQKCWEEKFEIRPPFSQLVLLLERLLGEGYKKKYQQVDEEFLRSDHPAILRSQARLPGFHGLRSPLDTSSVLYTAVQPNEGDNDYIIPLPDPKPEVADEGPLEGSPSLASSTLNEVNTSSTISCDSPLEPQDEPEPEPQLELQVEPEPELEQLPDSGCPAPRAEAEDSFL

[5] = target: Phosphatidylinositol 4-kinase beta (Homo sapiens) (UniProt Q9UBF8); conditions: Compound concentration 1000.0 nM
[6] = target: Serine/threonine-protein kinase BRSK1 (Homo sapiens) (UniProt Q8TDC3); conditions: Compound concentration 1000.0 nM
[7] = target: Macrophage colony-stimulating factor 1 receptor (Homo sapiens) (UniProt P07333); conditions: Compound concentration 1000.0 nM
[8] = target: Mitogen-activated protein kinase 10 (Homo sapiens) (UniProt P53779); conditions: Compound concentration 1000.0 nM
[9] = target: Leucine-rich repeat serine/threonine-protein kinase 2 (Homo sapiens) (UniProt Q5S007); conditions: Compound concentration 1000.0 nM
[10] = target: Macrophage-stimulating protein receptor (Homo sapiens) (UniProt Q04912); conditions: Compound concentration 1000.0 nM
[11] = target: Delta-type opioid receptor (Homo sapiens) (UniProt P41143); assay: delta (DOP) (h) Eurofins-Cerep binding assay; design: ligand concentration 0.5 nM; conditions: filed as agonist, Compound concentration 10.0 uM
[12] = system: Epidermal growth factor receptor (Homo sapiens), P00533 [G719S]; conditions: Compound concentration 1000.0 nM
[13] = target: Muscle, skeletal receptor tyrosine-protein kinase (Homo sapiens) (UniProt O15146); conditions: Compound concentration 1000.0 nM
[14] = target: Mitogen-activated protein kinase 13 (Homo sapiens) (UniProt O15264); conditions: Compound concentration 1000.0 nM
Chain of Mitogen-activated protein kinase 13 (Homo sapiens) (O15264 whole entry): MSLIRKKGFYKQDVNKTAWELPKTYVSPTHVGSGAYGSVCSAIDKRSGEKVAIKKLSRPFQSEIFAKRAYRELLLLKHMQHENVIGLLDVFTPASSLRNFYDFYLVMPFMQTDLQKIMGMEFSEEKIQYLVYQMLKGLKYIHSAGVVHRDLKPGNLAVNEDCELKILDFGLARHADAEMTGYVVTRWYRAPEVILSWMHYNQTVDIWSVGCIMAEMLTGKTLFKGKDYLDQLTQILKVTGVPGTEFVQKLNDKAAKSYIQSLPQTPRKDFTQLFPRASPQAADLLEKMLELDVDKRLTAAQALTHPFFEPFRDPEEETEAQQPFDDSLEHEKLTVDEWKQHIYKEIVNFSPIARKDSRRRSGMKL

[15] = target: L-type Ca2+ channel (dihydropyridine site) (Rattus norvegicus, UniProt P22002+P27732+Q02485); assay: Ca2+ channel (L, dihydropyridine site) Eurofins-Cerep binding assay; type: protein assay; design: incubation time 90 min, incubation temperature RT, ligand concentration 0.1 nM; conditions: rat cerebral cortex, probe [3H]nitrendipine (0.1 nM), compound concentration 10 uM, read-out: % Inhibition of Control Specific Binding (Mean n=2)
[16] = target: Tyrosine-protein kinase Yes (Homo sapiens) (UniProt P07947); conditions: Compound concentration 1000.0 nM
Chain of Tyrosine-protein kinase Yes (Homo sapiens) (P07947 2-543 limits assumed): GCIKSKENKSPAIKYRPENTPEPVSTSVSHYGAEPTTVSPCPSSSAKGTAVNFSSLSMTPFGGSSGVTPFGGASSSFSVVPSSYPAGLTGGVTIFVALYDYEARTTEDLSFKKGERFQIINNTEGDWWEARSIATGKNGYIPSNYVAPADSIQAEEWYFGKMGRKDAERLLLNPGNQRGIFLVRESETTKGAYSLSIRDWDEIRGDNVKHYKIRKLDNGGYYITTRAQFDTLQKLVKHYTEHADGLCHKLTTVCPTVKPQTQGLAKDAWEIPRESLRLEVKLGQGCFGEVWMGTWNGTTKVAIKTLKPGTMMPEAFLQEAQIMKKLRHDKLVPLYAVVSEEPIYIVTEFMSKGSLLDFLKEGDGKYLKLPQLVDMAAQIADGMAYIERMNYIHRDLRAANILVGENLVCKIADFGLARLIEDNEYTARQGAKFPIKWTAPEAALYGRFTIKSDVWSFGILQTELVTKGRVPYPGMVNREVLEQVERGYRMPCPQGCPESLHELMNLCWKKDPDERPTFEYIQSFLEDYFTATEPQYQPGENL

[17] = target: Bone morphogenetic protein receptor type-1B (Homo sapiens) (UniProt O00238); conditions: Compound concentration 1000.0 nM
[18] = target: Ribosomal protein S6 kinase beta-1 (Homo sapiens) (UniProt P23443); conditions: Compound concentration 1000.0 nM
Chain of Ribosomal protein S6 kinase beta-1 (Homo sapiens) (P23443 whole entry, looked up): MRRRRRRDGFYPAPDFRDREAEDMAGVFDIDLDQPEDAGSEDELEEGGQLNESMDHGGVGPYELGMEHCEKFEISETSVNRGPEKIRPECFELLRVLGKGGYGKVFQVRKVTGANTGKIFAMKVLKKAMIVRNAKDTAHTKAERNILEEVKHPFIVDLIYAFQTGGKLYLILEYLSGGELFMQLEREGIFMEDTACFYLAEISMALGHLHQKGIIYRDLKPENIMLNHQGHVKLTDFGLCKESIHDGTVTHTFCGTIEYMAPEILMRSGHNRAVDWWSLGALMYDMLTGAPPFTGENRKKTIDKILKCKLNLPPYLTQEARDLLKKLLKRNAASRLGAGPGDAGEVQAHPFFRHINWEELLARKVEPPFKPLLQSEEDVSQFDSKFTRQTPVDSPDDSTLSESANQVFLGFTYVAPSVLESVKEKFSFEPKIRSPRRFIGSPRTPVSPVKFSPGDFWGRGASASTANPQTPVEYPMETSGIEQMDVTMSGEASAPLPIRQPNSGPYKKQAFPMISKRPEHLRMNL

[19] = target: Protein kinase C iota type (Homo sapiens) (UniProt P41743); conditions: Compound concentration 1000.0 nM
[20] = target: Serine/threonine-protein kinase PAK 6 (Homo sapiens) (UniProt Q9NQU5); conditions: Compound concentration 1000.0 nM
[21] = target: Substance-K receptor (Homo sapiens) (UniProt P21452); assay: NK2 (h) Eurofins-Cerep binding assay; design: ligand concentration 0.1 nM; conditions: filed as agonist, Compound concentration 10.0 uM
Chain of Substance-K receptor (Homo sapiens) (P21452 whole entry): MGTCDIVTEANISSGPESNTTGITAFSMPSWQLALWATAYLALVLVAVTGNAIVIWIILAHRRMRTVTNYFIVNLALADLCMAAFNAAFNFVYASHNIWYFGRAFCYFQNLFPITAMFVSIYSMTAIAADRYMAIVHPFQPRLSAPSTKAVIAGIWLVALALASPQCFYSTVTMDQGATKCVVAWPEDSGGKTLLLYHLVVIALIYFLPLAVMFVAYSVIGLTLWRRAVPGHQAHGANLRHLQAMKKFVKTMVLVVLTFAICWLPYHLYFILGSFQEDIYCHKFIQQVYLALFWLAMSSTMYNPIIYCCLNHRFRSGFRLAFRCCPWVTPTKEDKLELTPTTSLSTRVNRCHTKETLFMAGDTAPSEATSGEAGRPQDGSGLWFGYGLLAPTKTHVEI

[22] = target: Cyclin-dependent kinase-like 3 (Homo sapiens) (UniProt Q8IVW4); conditions: Compound concentration 1000.0 nM
[23] = target: Serine/threonine-protein kinase tousled-like 1 (Homo sapiens) (UniProt Q9UKI8); conditions: Compound concentration 1000.0 nM
[24] = target: Cyclin-dependent kinase 5 (Homo sapiens) (UniProt Q00535); conditions: Compound concentration 1000.0 nM
[25] = target: Glycogen synthase kinase-3 beta (Homo sapiens) (UniProt P49841); conditions: Compound concentration 1000.0 nM
[26] = system: Tyrosine-protein kinase ABL1 (Homo sapiens), P00519 [H396P]; conditions: Compound concentration 1000.0 nM
[27] = target: Mitogen-activated protein kinase kinase kinase kinase 2 (Homo sapiens) (UniProt Q12851); conditions: Compound concentration 1000.0 nM
[28] = target: Glycogen synthase kinase-3 alpha (Homo sapiens) (UniProt P49840); conditions: Compound concentration 1000.0 nM
[29] = system: Receptor-type tyrosine-protein kinase FLT3 (Homo sapiens), P36888 [R834Q]; conditions: Compound concentration 1000.0 nM
[30] = target: Activated CDC42 kinase 1 (Homo sapiens) (UniProt Q07912); conditions: Compound concentration 1000.0 nM
[31] = target: Serine/threonine-protein kinase PAK 1 (Homo sapiens) (UniProt Q13153); conditions: Compound concentration 1000.0 nM
[32] = target: Tyrosine-protein kinase ABL1 (Homo sapiens) (UniProt P00519); conditions: Compound concentration 1000.0 nM
[33] = target: T1, Alpha-1B adrenergic receptor (Homo sapiens) (UniProt P35368); assay: Alpha1B (h) Eurofins-Cerep binding assay; conditions: filed as antagonist, Compound concentration 10.0 uM
T1 sequence (whole entry): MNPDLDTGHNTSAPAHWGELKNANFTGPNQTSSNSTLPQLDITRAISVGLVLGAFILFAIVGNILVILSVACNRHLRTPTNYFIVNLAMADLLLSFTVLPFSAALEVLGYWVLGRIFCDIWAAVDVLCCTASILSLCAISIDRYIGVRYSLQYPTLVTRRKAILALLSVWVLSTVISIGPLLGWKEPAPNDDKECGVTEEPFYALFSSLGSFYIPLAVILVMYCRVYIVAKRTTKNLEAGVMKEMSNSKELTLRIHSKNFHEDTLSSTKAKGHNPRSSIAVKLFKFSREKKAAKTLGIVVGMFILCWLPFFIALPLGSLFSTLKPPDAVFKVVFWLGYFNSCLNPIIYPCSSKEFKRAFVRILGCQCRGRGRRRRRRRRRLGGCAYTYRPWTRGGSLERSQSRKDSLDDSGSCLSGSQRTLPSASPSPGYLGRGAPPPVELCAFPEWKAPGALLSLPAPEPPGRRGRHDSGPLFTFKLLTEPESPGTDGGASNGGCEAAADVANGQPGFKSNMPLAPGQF

[34] = target: Tyrosine-protein kinase Lck (Homo sapiens) (UniProt P06239); conditions: Compound concentration 1000.0 nM
[35] = target: Serine/threonine-protein kinase haspin (Homo sapiens) (UniProt Q8TF76); conditions: Compound concentration 1000.0 nM
[36] = target: Wee1-like protein kinase 2 (Homo sapiens) (UniProt P0C1S8); conditions: Compound concentration 1000.0 nM
Chain of Wee1-like protein kinase 2 (Homo sapiens) (P0C1S8 whole entry, looked up): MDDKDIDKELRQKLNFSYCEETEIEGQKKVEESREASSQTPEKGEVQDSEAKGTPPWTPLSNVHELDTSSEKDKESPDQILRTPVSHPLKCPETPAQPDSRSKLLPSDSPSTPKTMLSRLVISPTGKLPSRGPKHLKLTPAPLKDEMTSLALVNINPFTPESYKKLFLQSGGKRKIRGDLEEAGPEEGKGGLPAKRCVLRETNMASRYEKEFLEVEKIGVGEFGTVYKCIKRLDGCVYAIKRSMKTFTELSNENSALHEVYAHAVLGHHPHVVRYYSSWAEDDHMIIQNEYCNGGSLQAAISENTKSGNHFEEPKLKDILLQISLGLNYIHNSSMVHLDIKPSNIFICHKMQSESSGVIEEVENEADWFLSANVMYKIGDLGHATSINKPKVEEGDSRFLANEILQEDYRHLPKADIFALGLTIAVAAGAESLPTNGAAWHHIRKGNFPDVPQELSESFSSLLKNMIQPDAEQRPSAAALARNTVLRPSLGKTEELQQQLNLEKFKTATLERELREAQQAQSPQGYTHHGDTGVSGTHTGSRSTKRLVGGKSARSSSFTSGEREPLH

[37] = target: Tyrosine-protein kinase CSK (Homo sapiens) (UniProt P41240); conditions: Compound concentration 1000.0 nM
Chain of Tyrosine-protein kinase CSK (Homo sapiens) (P41240 2-450 limits assumed): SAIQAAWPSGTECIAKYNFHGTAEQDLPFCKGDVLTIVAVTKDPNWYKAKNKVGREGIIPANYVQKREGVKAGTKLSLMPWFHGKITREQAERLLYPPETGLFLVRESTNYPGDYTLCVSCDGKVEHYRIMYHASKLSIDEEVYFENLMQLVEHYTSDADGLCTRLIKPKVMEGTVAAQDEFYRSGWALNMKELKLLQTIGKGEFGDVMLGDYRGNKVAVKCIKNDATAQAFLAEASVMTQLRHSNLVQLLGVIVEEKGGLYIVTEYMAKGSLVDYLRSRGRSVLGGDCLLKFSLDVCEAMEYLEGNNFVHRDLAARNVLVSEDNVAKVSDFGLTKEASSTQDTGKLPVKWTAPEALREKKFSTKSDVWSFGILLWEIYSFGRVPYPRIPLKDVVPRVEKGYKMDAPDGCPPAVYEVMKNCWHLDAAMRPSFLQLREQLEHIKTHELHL

Chain of Tyrosine-protein kinase Blk (Homo sapiens) (P51451 2-505 limits assumed): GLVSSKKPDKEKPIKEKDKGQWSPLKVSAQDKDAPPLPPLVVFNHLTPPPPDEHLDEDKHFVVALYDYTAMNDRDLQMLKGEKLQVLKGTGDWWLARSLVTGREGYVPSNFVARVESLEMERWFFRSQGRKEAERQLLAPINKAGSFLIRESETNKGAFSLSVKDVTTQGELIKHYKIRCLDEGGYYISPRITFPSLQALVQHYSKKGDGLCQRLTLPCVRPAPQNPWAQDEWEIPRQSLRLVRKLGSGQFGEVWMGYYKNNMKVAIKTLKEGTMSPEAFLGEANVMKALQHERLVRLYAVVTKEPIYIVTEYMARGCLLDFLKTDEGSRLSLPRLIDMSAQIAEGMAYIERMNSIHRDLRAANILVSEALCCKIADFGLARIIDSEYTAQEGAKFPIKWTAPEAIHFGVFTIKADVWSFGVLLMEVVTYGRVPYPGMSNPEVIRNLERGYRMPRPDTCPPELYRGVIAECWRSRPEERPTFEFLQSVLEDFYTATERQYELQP

Row | Structure (SMILES) | residual activity [1] | residual activity [2] | residual activity [3] | residual activity [4] | residual activity [5] | residual activity [6] | residual activity [7] | residual activity [8] | residual activity [9] | residual activity [10] | % Inhibition of Control Specific Binding (Mean n=2) [11] | residual activity [12] | residual activity [13] | residual activity [14] | inhibition at 90 min, 10 µM [15] | residual activity [16] | residual activity [17] | residual activity [18] | residual activity [19] | residual activity [20] | other results
1 | COc1ccc2c(c1)O[C@H](c1ccc(OC)c(OC)c1)C[C@@H]2NC(=O)C1(c2ccc3c(c2)OC(F)(F)O3)CC1 [A-1596584] | 100% | 100% | 100% | 100% | 81% | 100% | 100% | 100% | 100% | 100% | 2.2% | 99% | 100% | 100% | 2.6% | 97% | 100% | 91% | 89% | 100% | % Inhibition of Control Specific Binding (Mean n=2) [21]: 11.5%; residual activity [22]: 97%; residual activity [23]: 100%; residual activity [24]: 100%; residual activity [25]: 100%; residual activity [26]: 100%; residual activity [27]: 99%; residual activity [28]: 100%; residual activity [29]: 100%; residual activity [30]: 99%; residual activity [31]: 100%; residual activity [32]: 100%; % Inhibition of Control Specific Binding (Mean n=2) [33]: 17.4%; residual activity [34]: 100%; residual activity [35]: 91%; residual activity [36]: 100%; residual activity [37]: 100%
2 | COc1ccc2c(c1)O[C@@H](c1ccc(OC)c(OC)c1)C[C@H]2NC(=O)C1(c2ccc3c(c2)OC(F)(F)O3)CC1 [A-1596586] | 75% | 91% | 100% | 100% | 73% | 99% | 82% | 99% | 87% | 94% | 8.8% | 91% | 94% | 97% | 34.6% | 100% | 71% | 81% | 92% | 79% | % Inhibition of Control Specific Binding (Mean n=2) [21]: 11.5%; residual activity [22]: 94%; residual activity [23]: 84%; residual activity [24]: 100%; residual activity [25]: 92%; residual activity [26]: 85%; residual activity [27]: 87%; residual activity [28]: 100%; residual activity [29]: 100%; residual activity [30]: 100%; residual activity [31]: 89%; residual activity [32]: 86%; % Inhibition of Control Specific Binding (Mean n=2) [33]: 4.8%; residual activity [34]: 100%; residual activity [35]: 81%; residual activity [36]: 100%; residual activity [37]: 87%
